System: 425362-245-T-J1 tumor spheroids, viability % test/control
Assay: Anticancer human tumor 425362-245-T-J1 patient-derived melanoma cell line growth inhibition
Settings: spheroids with HUVEC and MSC; for IC50: curve of first compound; for viability, T/C: stronger effect = lower value
Description: Multicellular complex tumor spheroid response to DNA repair inhibitors in combination with DNA-damaging drugs
This study explores the anticancer activities of DNA-damaging drugs and inhibitors of DNA damage repair, both as single agents and in combinations. Complex tumor spheroids comprised of malignant cells, endothelial cells and mesenchymal stem cells served as an in vitro model for human solid tumors. This model system incorporates physiologically relevant features and patient-derived or established malignant cell lines with clinically relevant genetic alterations from many tumor types. Twenty-six patient-derived or established malignant cell lines were evaluated representing sarcoma, melanoma, small cell lung cancer (SCLC), non-small cell lung cancer (NSCLC), as well as bladder, ovarian and pancreatic cancers. The concentration ranges selected for each drug and investigational agent were based upon clinically achievable concentrations if the clinical Cmax of the agent was known.
Compounds. The drugs and compounds olaparib (NSC753686), talazoparib (NSC767125), berzosertib (NSC777718), elimusertib (NSC800525), nedisertib (NSC802822), VX-984 (NSC792969), AZD-1390 (NSC803789), temozolomide (NSC362856), topotecan (NSC609699), trabectedin (NSC813783), staurosporine (NSC755774), and gemcitabine (NSC613327) were obtained from the National Cancer Institute (NCI) Developmental Therapeutics Program Chemical Repository. The FDA-approved anticancer drug set is available from the Developmental Therapeutics Program at https://dtp.cancer.gov/organization/dscb/obtaining/available_plates.htm. […] The stock solutions were prepared in dimethyl sulfoxide (DMSO, Sigma-Aldrich, St. Louis, MO, cat. D2650) at 400-fold the tested concentration and stored at -70 degrees C. Prior to their use, the stock solutions were diluted in fresh medium and the final DMSO concentration in the assay was 0.25% (v/v). All drugs and investigational agents were tested over a range starting from a high concentration at or near the clinical Cmax and decreasing in half-log increments. If the clinical Cmax for an agent had not been determined, the highest concentration tested was 10 microM.
Cell Lines. The patient-derived cancer cell (PDC) lines: 156681-154-R-J1-PDC, 283228-195-R-J1-PDC, 287954-098-R-J1-PDC, 292921-168-R-J2-PDC, 349418-098-R-PDC, 425362-245-T-J1-PDC, 556581-035-R-J1-PDC, and BL0293-F563-PDC were received from the NCI Patient-Derived Models Repository (PDMR, https://pdmr.cancer.gov). The established cell lines HS-SY-2 (RRID:CVCL_8719), MPNST, and SYO-1 (RRID:CVCL_7146) were obtained from the Sloan Kettering Institute. The alveolar soft parts sarcoma cell line ASPS-1 (RRID:CVCL_S738) was established at the NCI and grown from internal seed stocks. The following established cell lines were purchased from the American Type Culture Collection (ATCC, Manassas, VA): G-401 (ATCC, cat. CRL-1441, RRID:CVCL_0270), SW982 (ATCC, cat. HTB-93, RRID:CVCL_1734), VA-ES-BJ (ATCC, cat. CRL-2138, RRID:CVCL_1785), NCI-H719 (ATCC, cat. CRL-5837, RRID:CVCL_1582), NCI-H196 (ATCC, cat. CRL-5823, RRID:CVCL_1509), NCI-H841 (ATCC, cat. CRL-5845, RRID:CVCL_1595), NCI-H1618 (ATCC, cat. CRL-5879, RRID:CVCL_1480), NCI-H1876 (ATCC, cat. CRL-5902, RRID:CVCL_1503), DMS 114 (ATCC, cat. CRL-2066; RRID:CVCL_1174), NCI-H211 (ATCC, cat. CRL-5824; RRID:CVCL_1529), and SW 1271 (ATCC, cat. CRL-2177, RRID:CVCL_1716). The small cell lung cancer cell line COR-L88 was purchased from Sigma-Aldrich (cat. 92031917-1VL, RRID:CVCL_1141). The non-small cell lung cancer cell lines NCI-H226 (RRID:CVCL_1544) and NCI-H322M (RRID:CVCL_1557) were established at the NCI and grown from internal seed stocks. Pooled donor human umbilical vein endothelial cells (HUVEC, Lonza, cat. CC-2519) and human mesenchymal stem cells (hMSC, Lonza, cat. PT-2501) were purchased from Lonza (Walkersville, MD).
Cell Culture. All cells were maintained in an incubator at 37 degrees C and 5% CO2 with 95% humidity. […]

[1] = second compound 0.003 µM, first compound 0.00949 µM
[2] = second compound 0.003 µM, first compound 0.03 µM
[3] = second compound 0.003 µM, first compound 0.0949 µM
[4] = second compound 0.003 µM, first compound 0.3 µM
[5] = second compound 0.003 µM, first compound 0.949 µM
[6] = second compound 0.003 µM, first compound 3 µM
[7] = second compound 0.00949 µM, first compound 0.00949 µM
[8] = second compound 0.00949 µM, first compound 0.03 µM
[9] = second compound 0.00949 µM, first compound 0.0949 µM
[10] = second compound 0.00949 µM, first compound 0.3 µM
[11] = second compound 0.00949 µM, first compound 0.949 µM
[12] = second compound 0.00949 µM, first compound 3 µM
[13] = second compound 0.03 µM, first compound 0.00949 µM
[14] = second compound 0.03 µM, first compound 0.03 µM
[15] = second compound 0.03 µM, first compound 0.0949 µM
[16] = second compound 0.03 µM, first compound 0.3 µM
[17] = second compound 0.03 µM, first compound 0.949 µM
[18] = second compound 0.03 µM, first compound 3 µM
[19] = second compound 0.0949 µM, first compound 0.00949 µM
[20] = second compound 0.0949 µM, first compound 0.03 µM
[21] = second compound 0.0949 µM, first compound 0.0949 µM
[22] = second compound 0.0949 µM, first compound 0.3 µM
[23] = second compound 0.0949 µM, first compound 0.949 µM
[24] = second compound 0.0949 µM, first compound 3 µM
[25] = second compound 0.3 µM, first compound 0.00949 µM
[26] = second compound 0.3 µM, first compound 0.03 µM
[27] = second compound 0.3 µM, first compound 0.0949 µM
[28] = second compound 0.3 µM, first compound 0.3 µM
[29] = second compound 0.3 µM, first compound 0.949 µM
[30] = second compound 0.3 µM, first compound 3 µM
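Also: spheroids exposed to agents for 7 days.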
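For viability, T/C in this document: 100% = DMSO vehicle control viability.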

SMILES | IC50 (second compound 0.003 µM) [nM] | IC50 (second compound 0.00949 µM) [nM] | IC50 (second compound 0.03 µM) [nM] | IC50 (second compound 0.0949 µM) [nM] | IC50 (second compound 0.3 µM) [nM] | viability, T/C [3] [%] | viability, T/C [4] [%] | viability, T/C [5] [%] | viability, T/C [6] [%] | viability, T/C [9] [%] | viability, T/C [10] [%] | viability, T/C [11] [%] | viability, T/C [12] [%] | viability, T/C [15] [%] | viability, T/C [16] [%] | viability, T/C [17] [%] | viability, T/C [18] [%] | viability, T/C [21] [%] | viability, T/C [22] [%] | viability, T/C [23] [%] | other results
CNCc1ccc(-c2cc(-c3nc(-c4ccc(S(=O)(=O)C(C)C)cc4)cnc3N)on2)cc1 + CC[C@@]1(O)C(=O)OCc2c1cc1n(c2=O)Cc2cc3c(CN(C)C)c(O)ccc3nc2-1 | 55 | 47.5 | < 9.49 | < 9.49 | < 9.49 | 32.7 | 5.49 | 2.14 | 0.22 | 17.6 | 4.43 | 2.33 | 0.18 | 10.4 | 2.7 | 1.35 | 0.15 | 2.64 | 2.59 | 1.05 | viability, T/C [1]: 75.8%; viability, T/C [2]: 69.4%; viability, T/C [7]: 70%; viability, T/C [8]: 73%; viability, T/C [13]: 33.9%; viability, T/C [14]: 17.8%; viability, T/C [19]: 4.36%; viability, T/C [20]: 4.83%; viability, T/C [24]: 0.21%; viability, T/C [25]: 1.97%; viability, T/C [26]: 1.87%; viability, T/C [27]: 1.95%; viability, T/C [28]: 1.64%; viability, T/C [29]: 1.08%; viability, T/C [30]: 0.28%
Cn1ncnc1[C@H]1c2n[nH]c(=O)c3cc(F)cc(c23)N[C@@H]1c1ccc(F)cc1 + CC[C@@]1(O)C(=O)OCc2c1cc1n(c2=O)Cc2cc3c(CN(C)C)c(O)ccc3nc2-1 | < 9.49 | < 9.49 | < 9.49 | < 9.49 | < 9.49 | 17.6 | 11.1 | 5.98 | 2.38 | 9.54 | 9.4 | 6.02 | 3.27 | 7.89 | 6.48 | 3.96 | 2.32 | 3.86 | 3.16 | 2.57 | viability, T/C [1]: 47.8%; viability, T/C [2]: 30.3%; viability, T/C [7]: 28.2%; viability, T/C [8]: 13.9%; viability, T/C [13]: 8.39%; viability, T/C [14]: 8.16%; viability, T/C [19]: 4.28%; viability, T/C [20]: 3.95%; viability, T/C [24]: 1.79%; viability, T/C [25]: 2.13%; viability, T/C [26]: 1.9%; viability, T/C [27]: 1.79%; viability, T/C [28]: 1.71%; viability, T/C [29]: 1.43%; viability, T/C [30]: 1.33%
O=C(c1cc(Cc2n[nH]c(=O)c3ccccc23)ccc1F)N1CCN(C(=O)C2CC2)CC1 + CC[C@@]1(O)C(=O)OCc2c1cc1n(c2=O)Cc2cc3c(CN(C)C)c(O)ccc3nc2-1 | 3170 | 650 | < 94.9 | < 94.9 | < 94.9 | 87 | 84.8 | 80.6 | 52.4 | 71.3 | 55 | 46.6 | 34.8 | 7.79 | 10.1 | 8.82 | 6.98 | 4.29 | 4.4 | 5.46 | viability, T/C (second compound 0.003 µM, first compound 9.49 µM): 7.82%; viability, T/C (second compound 0.003 µM, first compound 30 µM): 9.12%; viability, T/C (second compound 0.00949 µM, first compound 9.49 µM): 9.52%; viability, T/C (second compound 0.00949 µM, first compound 30 µM): 8.51%; viability, T/C (second compound 0.03 µM, first compound 9.49 µM): 6.48%; viability, T/C (second compound 0.03 µM, first compound 30 µM): 5.12%; viability, T/C [24]: 4.39%; viability, T/C (second compound 0.0949 µM, first compound 9.49 µM): 3.36%; viability, T/C (second compound 0.0949 µM, first compound 30 µM): 3.93%; viability, T/C [27]: 2.55%; viability, T/C [28]: 1.67%; viability, T/C [29]: 1.76%; viability, T/C [30]: 1.64%; viability, T/C (second compound 0.3 µM, first compound 9.49 µM): 1.57%; viability, T/C (second compound 0.3 µM, first compound 30 µM): 1.68%
